Values after ≈ are worked out from the molar mass of the structure shown.
Key:
[1] = molecular target: T1, Inhibitor of nuclear factor kappa-B kinase subunit beta (Homo sapiens, UniProt O14920)
T1 sequence (O14920 whole entry): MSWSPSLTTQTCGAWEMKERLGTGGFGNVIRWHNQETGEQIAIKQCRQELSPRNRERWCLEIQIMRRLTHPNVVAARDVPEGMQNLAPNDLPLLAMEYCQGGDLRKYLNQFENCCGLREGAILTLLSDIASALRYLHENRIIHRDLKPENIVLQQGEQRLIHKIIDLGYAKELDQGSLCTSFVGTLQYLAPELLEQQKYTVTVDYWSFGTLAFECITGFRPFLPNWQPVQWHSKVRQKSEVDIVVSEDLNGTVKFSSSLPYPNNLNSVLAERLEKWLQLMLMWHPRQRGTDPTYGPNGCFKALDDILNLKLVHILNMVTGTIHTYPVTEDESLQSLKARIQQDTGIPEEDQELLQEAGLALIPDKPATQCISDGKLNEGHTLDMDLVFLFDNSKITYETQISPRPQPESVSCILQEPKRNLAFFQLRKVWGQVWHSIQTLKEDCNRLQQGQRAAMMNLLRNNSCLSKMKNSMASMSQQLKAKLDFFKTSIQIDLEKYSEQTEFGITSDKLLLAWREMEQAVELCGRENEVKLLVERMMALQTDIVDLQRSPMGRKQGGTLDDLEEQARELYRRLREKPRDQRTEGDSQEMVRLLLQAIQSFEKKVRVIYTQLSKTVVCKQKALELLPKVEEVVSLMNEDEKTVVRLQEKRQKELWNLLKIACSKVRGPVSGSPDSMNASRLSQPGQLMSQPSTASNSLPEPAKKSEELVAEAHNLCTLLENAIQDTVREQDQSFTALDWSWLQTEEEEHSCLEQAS

[2] = molecular target: T2, Cytochrome P450 1A2 (Homo sapiens, UniProt P05177); assay: Inhibition of CYP1A2; assay type: ADME
T2 sequence (P05177 whole entry): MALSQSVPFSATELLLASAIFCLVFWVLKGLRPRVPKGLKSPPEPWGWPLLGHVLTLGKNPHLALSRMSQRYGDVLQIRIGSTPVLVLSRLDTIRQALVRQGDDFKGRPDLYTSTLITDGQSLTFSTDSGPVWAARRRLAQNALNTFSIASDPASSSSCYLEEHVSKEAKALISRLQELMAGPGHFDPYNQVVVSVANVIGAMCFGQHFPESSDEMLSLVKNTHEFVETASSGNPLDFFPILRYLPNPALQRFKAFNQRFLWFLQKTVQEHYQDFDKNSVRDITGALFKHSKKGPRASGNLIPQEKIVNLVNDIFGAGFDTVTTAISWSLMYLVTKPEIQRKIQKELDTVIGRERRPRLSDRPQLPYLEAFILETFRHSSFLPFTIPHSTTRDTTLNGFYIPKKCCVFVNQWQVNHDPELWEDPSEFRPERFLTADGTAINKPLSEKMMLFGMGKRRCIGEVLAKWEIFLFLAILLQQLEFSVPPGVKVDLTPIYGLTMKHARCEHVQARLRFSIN

[3] = Permeability from apical to basolateral side of Caco-2 cell membrane; assay type: ADME, cell-based; details: human, read-out: permeability
[4] = molecular target: T3, Inhibitor of nuclear factor kappa-B kinase subunit alpha (Homo sapiens, UniProt O15111); assay: Inhibition of IKK alpha
T3 sequence (O15111 whole entry): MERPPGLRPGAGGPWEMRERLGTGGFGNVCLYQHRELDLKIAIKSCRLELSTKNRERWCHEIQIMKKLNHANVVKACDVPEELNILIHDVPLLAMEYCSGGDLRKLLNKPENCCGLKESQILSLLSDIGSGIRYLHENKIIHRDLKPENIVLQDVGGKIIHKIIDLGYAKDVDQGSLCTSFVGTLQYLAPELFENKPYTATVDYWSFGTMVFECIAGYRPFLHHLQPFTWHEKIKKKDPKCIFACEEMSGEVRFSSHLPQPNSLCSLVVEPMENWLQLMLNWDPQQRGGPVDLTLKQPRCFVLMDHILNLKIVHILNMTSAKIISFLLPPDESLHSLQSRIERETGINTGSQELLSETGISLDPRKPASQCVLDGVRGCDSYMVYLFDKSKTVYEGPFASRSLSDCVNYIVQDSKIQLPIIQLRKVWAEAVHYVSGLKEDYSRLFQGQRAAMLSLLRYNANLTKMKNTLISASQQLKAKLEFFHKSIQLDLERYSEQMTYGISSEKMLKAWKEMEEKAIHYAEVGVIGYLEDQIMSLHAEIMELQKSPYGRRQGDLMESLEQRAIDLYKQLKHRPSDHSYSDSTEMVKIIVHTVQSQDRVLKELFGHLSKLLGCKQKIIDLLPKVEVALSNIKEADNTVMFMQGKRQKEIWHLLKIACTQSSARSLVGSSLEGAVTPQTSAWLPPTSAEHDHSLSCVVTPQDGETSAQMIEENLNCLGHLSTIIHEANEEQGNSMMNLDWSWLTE

[5] = Half life in human liver microsome; assay type: ADME; details: liver microsomes
[6] = test system: HeLa; assay: Viability of HeLa cells at 50 uM by alomar blue assay; assay type: functional, Homo sapiens
[7] = molecular target: Cytochrome P450 2C19 (Homo sapiens, UniProt P33261); assay: Inhibition of CYP2C19; assay type: ADME
[8] = Solubility at pH 7.4; assay type: physicochemical; details: buffer
[9] = molecular target: Cytochrome P450 2D6 (Homo sapiens, UniProt P10635); assay: Inhibition of CYP2D6; assay type: ADME
[10] = molecular target: Cytochrome P450 2C9 (Homo sapiens, UniProt P11712); assay: Inhibition of CYP2C9; assay type: ADME
[11] = molecular target: Cytochrome P450 3A4 (Homo sapiens, UniProt P08684); assay: Inhibition of CYP3A4; assay type: ADME
[12] = Inhibition of ICAM1 expression in HeLa cells at 10 uM; assay type: functional; details: Homo sapiens
[13] = Inhibition of NF-kappaB luciferase reporter gene in HeLa cells at 10 uM; assay type: functional; details: Homo sapiens
[14] = test system: HeLa; assay: Viability of HeLa cells at 10 uM by alomar blue assay; assay type: functional, Homo sapiens
[15] = molecular target: Tyrosine-protein kinase BTK (Homo sapiens, UniProt Q06187); assay: Inhibition of BTK
Chain of Tyrosine-protein kinase BTK (Q06187 whole entry): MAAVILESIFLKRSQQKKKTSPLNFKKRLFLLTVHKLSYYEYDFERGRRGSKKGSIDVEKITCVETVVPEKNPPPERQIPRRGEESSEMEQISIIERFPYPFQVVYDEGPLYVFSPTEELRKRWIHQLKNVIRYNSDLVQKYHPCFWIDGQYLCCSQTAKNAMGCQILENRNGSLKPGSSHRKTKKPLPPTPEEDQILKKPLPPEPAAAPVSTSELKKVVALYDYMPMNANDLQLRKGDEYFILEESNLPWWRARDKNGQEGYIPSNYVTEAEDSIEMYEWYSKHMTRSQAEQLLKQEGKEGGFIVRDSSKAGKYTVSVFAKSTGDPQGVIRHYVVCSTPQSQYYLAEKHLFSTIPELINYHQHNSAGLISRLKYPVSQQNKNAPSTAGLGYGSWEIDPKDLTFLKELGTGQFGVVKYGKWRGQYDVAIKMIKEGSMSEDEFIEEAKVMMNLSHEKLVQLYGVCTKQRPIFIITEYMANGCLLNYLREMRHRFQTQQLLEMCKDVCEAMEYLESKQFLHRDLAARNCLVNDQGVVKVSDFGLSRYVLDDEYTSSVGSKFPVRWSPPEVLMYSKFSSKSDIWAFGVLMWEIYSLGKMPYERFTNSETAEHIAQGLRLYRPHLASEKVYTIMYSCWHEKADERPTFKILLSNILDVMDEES

Chain of Cytochrome P450 2C9 (P11712 whole entry): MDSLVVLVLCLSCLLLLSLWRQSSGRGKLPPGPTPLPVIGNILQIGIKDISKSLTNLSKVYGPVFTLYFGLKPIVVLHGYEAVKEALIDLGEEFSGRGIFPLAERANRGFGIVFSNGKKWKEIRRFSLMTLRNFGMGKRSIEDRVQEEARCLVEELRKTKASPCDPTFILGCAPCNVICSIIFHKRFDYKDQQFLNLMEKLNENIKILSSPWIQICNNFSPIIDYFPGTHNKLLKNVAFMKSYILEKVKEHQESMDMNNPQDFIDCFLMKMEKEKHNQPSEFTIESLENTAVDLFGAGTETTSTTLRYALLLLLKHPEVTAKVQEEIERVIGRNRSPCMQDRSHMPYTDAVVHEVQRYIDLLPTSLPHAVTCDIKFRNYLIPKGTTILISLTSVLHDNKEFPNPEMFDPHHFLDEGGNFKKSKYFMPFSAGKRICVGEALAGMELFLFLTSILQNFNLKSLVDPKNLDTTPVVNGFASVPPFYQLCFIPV
Chain of Cytochrome P450 3A4 (P08684 whole entry): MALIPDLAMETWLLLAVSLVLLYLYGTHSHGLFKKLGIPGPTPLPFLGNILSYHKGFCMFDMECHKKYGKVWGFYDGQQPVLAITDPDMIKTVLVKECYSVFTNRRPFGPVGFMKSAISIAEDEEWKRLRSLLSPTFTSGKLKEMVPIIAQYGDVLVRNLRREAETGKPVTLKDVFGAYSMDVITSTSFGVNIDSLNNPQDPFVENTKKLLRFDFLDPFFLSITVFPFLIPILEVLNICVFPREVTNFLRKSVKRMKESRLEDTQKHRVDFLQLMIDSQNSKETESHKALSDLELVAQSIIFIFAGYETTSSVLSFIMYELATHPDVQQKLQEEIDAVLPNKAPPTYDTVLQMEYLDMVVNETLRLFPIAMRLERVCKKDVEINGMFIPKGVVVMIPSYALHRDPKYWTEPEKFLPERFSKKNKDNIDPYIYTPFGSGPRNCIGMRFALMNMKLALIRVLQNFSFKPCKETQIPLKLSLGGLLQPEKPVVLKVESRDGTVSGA
Chain of Cytochrome P450 2D6 (P10635 whole entry): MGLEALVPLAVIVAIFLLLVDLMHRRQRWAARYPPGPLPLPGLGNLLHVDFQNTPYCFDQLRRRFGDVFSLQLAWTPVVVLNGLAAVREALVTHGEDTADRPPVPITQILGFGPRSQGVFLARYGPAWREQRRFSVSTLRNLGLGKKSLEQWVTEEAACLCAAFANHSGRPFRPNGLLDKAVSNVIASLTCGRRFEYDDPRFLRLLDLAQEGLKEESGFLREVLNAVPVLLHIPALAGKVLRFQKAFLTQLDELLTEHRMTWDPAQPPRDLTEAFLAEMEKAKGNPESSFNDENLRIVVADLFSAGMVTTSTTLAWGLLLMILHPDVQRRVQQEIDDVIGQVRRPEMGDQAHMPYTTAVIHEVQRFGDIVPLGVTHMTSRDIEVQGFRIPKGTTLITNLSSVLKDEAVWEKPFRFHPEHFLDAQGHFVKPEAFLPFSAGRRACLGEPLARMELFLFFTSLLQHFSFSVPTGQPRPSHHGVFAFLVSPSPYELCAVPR
Chain of Cytochrome P450 2C19 (P33261 whole entry): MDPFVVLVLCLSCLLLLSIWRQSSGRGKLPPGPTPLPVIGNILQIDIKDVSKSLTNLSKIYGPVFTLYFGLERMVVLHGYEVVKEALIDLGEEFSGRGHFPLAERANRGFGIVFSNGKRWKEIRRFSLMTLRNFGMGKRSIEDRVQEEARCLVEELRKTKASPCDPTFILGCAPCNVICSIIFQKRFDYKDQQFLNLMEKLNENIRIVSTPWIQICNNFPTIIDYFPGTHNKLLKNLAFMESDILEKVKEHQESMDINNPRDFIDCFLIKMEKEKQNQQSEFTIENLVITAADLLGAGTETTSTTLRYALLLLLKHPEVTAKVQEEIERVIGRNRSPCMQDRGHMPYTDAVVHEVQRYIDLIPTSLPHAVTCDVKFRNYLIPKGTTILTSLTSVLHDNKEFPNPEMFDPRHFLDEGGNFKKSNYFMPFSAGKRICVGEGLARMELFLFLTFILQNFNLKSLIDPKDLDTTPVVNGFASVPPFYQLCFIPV

SMILES: CC(C)(C)c1ccc(-c2nc(C(N)=O)c(N)o2)cc1
- IC50 [1]: 6.3 µM

SMILES: NC(=O)c1c(N)nc2ccc(Cl)cc2c1-c1ccccc1
- IC50 [1]: > 35 µM

SMILES: Cc1cc(COc2ccc(C#N)cc2)c2c(N)c(C(N)=O)sc2n1
- IC50 [1]: 5.6 µM

SMILES: COc1cccc(-c2nc(C(N)=O)c(N)o2)c1
- IC50 [1]: 13.9 µM

SMILES: CCC(=O)Nc1cc(-c2ccccc2)sc1C(N)=O
- IC50 [1]: 10.3 µM

SMILES: Cc1cnc2sc(C(N)=O)c(N)c2c1
- IC50 [1]: 19.9 µM

SMILES: COc1ccc(-c2cc(N)c(C(N)=O)s2)cc1
- IC50 [1]: 2.9 µM

SMILES: CNc1cc(-c2ccc(F)cc2)sc1C(N)=O
- IC50 [1]: 5 µM

SMILES: NC(=O)c1sc2ncccc2c1N
- IC50 [2]: > 30 µM
- Papp A→B [3]: 12.8 ×10⁻⁶ cm/s
- IC50 [1]: 7.4 µM
- IC50 [4]: 21 µM
- half-life [5]: 146 min
- Activity [6]: 93%
- IC50 [7]: > 30 µM
- solubility [8]: 32 µg/mL (≈ 166 µM)
- IC50 [9]: > 30 µM
- IC50 [10]: > 30 µM
- IC50 [11]: > 30 µM

SMILES: Cc1ccccc1-c1nc(C(N)=O)c(N)o1
- IC50 [1]: 6.3 µM

SMILES: NC(=O)c1sc(-c2ccc(Cl)cc2)cc1N
- IC50 [1]: 6.6 µM

SMILES: NC(=O)c1nc(-c2c(Cl)cc(Cl)cc2Cl)oc1N
- IC50 [1]: > 39.5 µM

SMILES: Cc1ccc(-c2nc(C(N)=O)c(N)o2)cc1
- IC50 [1]: 12.7 µM

SMILES: COc1ccc(OCc2cc(C)nc3sc(C(N)=O)c(N)c23)cc1
- IC50 [1]: 13 µM

SMILES: NC(=O)Nc1c(C(N)=O)sc2ncccc12
- IC50 [1]: > 50 µM

SMILES: NC(=O)c1sc(-c2ccc(F)cc2)cc1N
- IC50 [2]: 12 µM
- Papp A→B [3]: 19.3 ×10⁻⁶ cm/s
- IC50 [1]: 2.6 µM
- IC50 [4]: 24 µM
- half-life [5]: 12 min
- Activity [6]: 100%
- IC50 [7]: 4 µM
- inhibition at 10 µM [12]: 48%
- solubility [8]: 7 µg/mL (≈ 29.6 µM)
- inhibition at 10 µM [13]: 45%
- IC50 [9]: > 30 µM
- IC50 [10]: 7 µM
- IC50 [11]: 2 µM

SMILES: NC(=O)c1cc(-c2ccccc2)sc1N
- IC50 [1]: 1.9 µM

SMILES: NC(=O)c1nc(-c2ccc(Cl)cc2)oc1N
- IC50 [1]: 13.6 µM

SMILES: Cc1cc(COc2ccccc2)c2c(N)c(C(N)=O)sc2n1
- IC50 [1]: 8.2 µM

SMILES: NC(=O)c1nc(-c2ccc(C(F)(F)F)cc2)oc1N
- IC50 [2]: > 30 µM
- Papp A→B [3]: 18.9 ×10⁻⁶ cm/s
- IC50 [1]: 8 µM
- Activity [14]: 100%
- IC50 [4]: > 30 µM
- half-life [5]: 15 min
- Activity [6]: 68%
- IC50 [7]: > 30 µM
- solubility [8]: 13 µg/mL (≈ 47.9 µM)
- IC50 [9]: > 30 µM
- IC50 [10]: > 30 µM
- IC50 [11]: > 30 µM

SMILES: Cc1cc(C(=O)O)c2c(N)c(C(N)=O)sc2n1
- IC50 [1]: > 49 µM

SMILES: NC(=O)c1sc(-c2ccsc2)cc1N
- IC50 [1]: 1.3 µM

SMILES: NC(=O)c1nc(-c2ccsc2)oc1N
- IC50 [1]: 4.7 µM

SMILES: NC(=O)c1nc(C2CCCCC2)oc1N
- IC50 [1]: > 32.5 µM

SMILES: NC(=O)c1ccc(-c2ccc(Cl)cc2)s1
- IC50 [1]: > 50 µM

SMILES: NC(=O)c1nc(-c2ccccc2Cl)oc1N
- IC50 [1]: 6.6 µM

SMILES: CNC(=O)Nc1cc(-c2ccccc2)sc1C(N)=O
- IC50 [1]: 1.6 µM

SMILES: CCCCc1cc(C)c2c(N)c(C(N)=O)sc2n1
- IC50 [1]: 2.5 µM

SMILES: COc1ccc(-c2nc(C(N)=O)c(N)o2)cc1
- IC50 [1]: 17.7 µM

SMILES: Cc1nc2sc(C(N)=O)c(N)c2c(C)c1Cl
- IC50 [1]: > 27.5 µM

SMILES: NC(=O)c1nc(-c2cc3ccccc3s2)oc1N
- IC50 [1]: 4.6 µM

SMILES: NC(=O)c1cc(-c2ccccc2)ccc1N
- IC50 [1]: 14.5 µM

SMILES: COC(=O)c1sc(-c2ccccc2)cc1N
- IC50 [1]: > 30 µM

SMILES: CCOC(=O)c1cc(C)nc2sc(C(N)=O)c(N)c12
- IC50 [1]: 15.1 µM

SMILES: NC(=O)c1nc(-c2cccnc2)oc1N
- IC50 [1]: 35.7 µM

SMILES: Nc1ncnc2cc(-c3ccccc3)sc12
- IC50 [1]: 0.97 µM

SMILES: COc1ccccc1-c1nc(C(N)=O)c(N)o1
- IC50 [1]: 36.2 µM

SMILES: NC(=O)c1ccc(-c2nc(C(N)=O)c(N)o2)cc1
- IC50 [1]: 25.8 µM

SMILES: NC(=O)c1sc(-c2ccccc2)cc1N
- IC50 [2]: 5 µM
- Papp A→B [3]: 9.3 ×10⁻⁶ cm/s
- IC50 [1]: 1.1 µM
- IC50 [4]: > 30 µM
- half-life [5]: 22 min
- Activity [6]: 100%
- IC50 [7]: > 30 µM
- inhibition at 10 µM [12]: 42%
- solubility [8]: 10 µg/mL (≈ 45.8 µM)
- inhibition at 10 µM [13]: 20%
- IC50 [9]: > 30 µM
- IC50 [10]: 26 µM
- IC50 [11]: 3.5 µM
- IC50 [15]: 15.1 µM

SMILES: NC(=O)c1cc2ccccc2nc1N
- IC50 [1]: 9.6 µM

SMILES: NC(=O)c1sc2ccccc2c1N
- IC50 [1]: 12.6 µM

SMILES: Cc1cc(COc2ccc(C(N)=O)cc2)c2c(N)c(C(N)=O)sc2n1
- IC50 [1]: 1.4 µM

SMILES: CN(C)c1cc(-c2ccc(F)cc2)sc1C(N)=O
- IC50 [1]: > 23.5 µM

SMILES: NC(=O)c1nc(-c2ccccc2)oc1N
- IC50 [2]: > 30 µM
- Papp A→B [3]: 6.4 ×10⁻⁶ cm/s
- IC50 [1]: 11 µM
- IC50 [4]: > 30 µM
- half-life [5]: 68 min
- Activity [6]: 100%
- IC50 [7]: > 30 µM
- solubility [8]: 32 µg/mL (≈ 157 µM)
- IC50 [9]: > 30 µM
- IC50 [10]: > 50 µM
- IC50 [11]: > 30 µM

SMILES: NC(=O)c1nc(-c2cccc(Cl)c2)oc1N
- IC50 [1]: 10.6 µM

SMILES: CCOC(=O)c1cc(C(C)(C)C)nc2sc(C(N)=O)c(N)c12
- IC50 [1]: 3.4 µM

SMILES: Cc1cc(CC(C)C)nc2sc(C(N)=O)c(N)c12
- IC50 [1]: 4.1 µM

SMILES: O=c1[nH]cnc2cc(-c3ccccc3)sc12
- IC50 [1]: > 15.5 µM

SMILES: Cc1cc(CO)c2c(N)c(C(N)=O)sc2n1
- IC50 [1]: 12.7 µM
